# From patent US20240374631A1, “A COMPOSITION FOR IMPROVING GUT MICROBIOTA, BEHAVIOURAL PATTERN, ALPHA-SYNUCLEIN LEVELS, SLEEP PATTERN AND/OR SERUM MELATONIN” (GN Corporation Co Ltd, priority 2021, published 2024)
# System: gut microbiota
# Assay: Gut microbiome analysis (16S rRNA sequencing of fecal samples) in STAM model of NASH
# Type: in vivo, C57BL/6J mice
# Excerpt: The study is reported in accordance with Animal Research: Reporting of In Vivo Experiments (ARRIVE) guidelines. C57BL/6J mice were obtained from Japan SLC, Inc. (Japan). All animals used in this study were cared for under the following guidelines: Act on Welfare and Management of Animals (Ministry of the Environment, Japan, Act No. 105 of Oct. 1, 1973), standards relating to the care and management of laboratory animals and relief of pain (Notice No. 88 of the Ministry of the Environment, Japan, Apr. 28, 2006) and the guidelines for proper conduct of animal experiments (Science Council of Japan, Jun. 1, 2006). Protocol approvals were obtained from SMC Laboratories, Japan's IACUC (Study reference no: […] Mice were maintained in a specific pathogen-free (SPF) facility under controlled conditions of temperature (23±3° C.), humidity (50±20%), lighting (12-hour artificial light and dark cycles; light from 8:00 to 20:00) and air exchange. The STAM model of NASH was induced as previously described [D10]. Mice were given a single subcutaneous injection of 200 μg streptozotocin (STZ, Sigma-Aldrich, USA) solution 2 days after birth and fed with a high-fat diet (HFD, 57 kcal % fat, Cat #HFD32, CLEA Japan, Inc., Japan) from 4-9 weeks of age. All mice develop liver steatosis and diabetes and at […] mice had established steatohepatitis, histologically. Studygroups: There were five study groups, described below. Eight mice were included in each study group. Eight NASH mice were orally administered vehicle supplemented with AFO-202 Beta Glucan at a dose of 1 mg/kg in a volume of 5 mL/kg once daily from 6 to 9 weeks of age. Eight NASH mice were orally administered vehicle supplemented with Telmisartan at a dose of 10 mg/kg once daily from 6 to 9 weeks of age. Frequency: Fecal samples were collected at the 6 weeks of age (before administration) and 9 weeks of age (before sacrifice). Procedure: At 6 weeks of age, fecal samples were collected from each mouse by clean catch method. […] A sterile petri dish was placed on the bench. Gently massage the abdomen, position the bottom of mouse over a fresh petri dish, and collect 1-2 fecal pellets. At sacrifice, fecal samples were aseptically collected from cecum. The tubes with feces were placed on ice immediately. These tubes were snap frozen in liquid nitrogen and stored at -80° C. for shipping. In this analysis, the 16S rRNA sequence data acquired by the next-generation sequencer from the fecal […] was used to perform community analysis using the QIIME2 program for microbial community analysis. The raw read data in FASTQ format output from the next-generation sequencer was trimmed to remove adapter sequences and low QV regions that may be included in the data. Cutadapt was used to remove adapter sequences from DNA sequencing reads. Trimmomatic was used as read trimming tool for Illumina NGS data. The adapter sequence was trimmed using the adapter trimming program “cutadapt” if the Trimming of the region at the end of the read sequence overlapped the corresponding sequence by at least one base (mismatch tolerance: 20%). When reads containing N were present in at least one of Read1 and Read2, both Read1 and Read2 were removed. Trimming of low QV regions was performed on the read data after processing using the QV trimming program “Trimmomatic” under the following conditions. The window of 20 bases is slid from the 5' side, and the area where the average QV is less than 20 is trimmed. After trimming, only the reads with more than 50 bases remaining in both Read1 and Read2 were taken as output. The microbial community analysis based on 16S rRNA sequence was performed on the sequence data trimmed in the previous section using the microbial community analysis program “QIIME2”. The annotation program “sklearn” included in QIIME2 is used to annotate the ASV (OTU) sequences. […]
smiles,measurement,setting,value
CCCc1nc2c(C)cc(-c3nc4ccccc4n3C)cc2n1Cc1ccc(-c2ccccc2C(=O)O)cc1 [Telmisartan],"Abundance: Family Methanobacteriaceae, Genus Methanobrevibacter, Species —","pre (baseline), table row r429",0
same,"Abundance: Family Lachnospiraceae, Genus Other, Species Other","pre (baseline), table row r431",12
same,"Abundance: Family Lachnospiraceae, Genus Dorea, Species —","pre (baseline), table row r432",0
same,"Abundance: Family Lachnospiraceae, Genus Dorea, Species —","pre (baseline), table row r433",7
same,"Abundance: Family Lachnospiraceae, Genus —, Species —","pre (baseline), table row r434",11
same,"Abundance: Family Erysipelotrichaceae, Genus —, Species —","pre (baseline), table row r435",0
same,"Abundance: Family Other, Genus Other, Species Other","pre (baseline), table row r437",0
same,"Abundance: Family Ruminococcaceae, Genus Ruminococcus, Species —","pre (baseline), table row r438",0
same,"Abundance: Family Lachnospiraceae, Genus Other, Species Other","pre (baseline), table row r439",0
same,"Abundance: Family Erysipelotrichaceae, Genus Clostridum, Species cocleatum","pre (baseline), table row r440",0
same,"Abundance: Family Clostridiaceae, Genus —, Species —","pre (baseline), table row r441",10
same,"Abundance: Family S24-7, Genus —, Species —","pre (baseline), table row r442",0
same,"Abundance: Family Ruminococcaceae, Genus Oscillospira, Species —","pre (baseline), table row r443",0
same,"Abundance: Family Erysipelotrichaceae, Genus —, Species —","pre (baseline), table row r446",0
same,"Abundance: Family Streptococcaceae, Genus —, Species —","pre (baseline), table row r447",0
same,"Abundance: Family Erysipelotrichaceae, Genus —, Species —","pre (baseline), table row r448",0
same,"Abundance: Family Turicibacteraceae, Genus Turicibacter, Species —","pre (baseline), table row r449",0
same,"Abundance: Family S24-7, Genus —, Species —","pre (baseline), table row r450",0
same,"Abundance: Family Ruminococcaceae, Genus Oscillospira, Species —","pre (baseline), table row r451",0
same,"Abundance: Family Lachnospiraceae, Genus —, Species —","pre (baseline), table row r452",0
same,"Abundance: Family Erysipelotrichaceae, Genus —, Species —","pre (baseline), table row r454",0
same,"Abundance: Family Ruminococcaceae, Genus Ruminococcus, Species —","pre (baseline), table row r455",0
same,"Abundance: Family Moraxellaceae, Genus Psychrobacter, Species Other","pre (baseline), table row r456",0
same,"Abundance: Family Paenibacillaceae, Genus Other, Species Other","pre (baseline), table row r457",0
same,"Abundance: Family Lachnospiraceae, Genus Coprococcus, Species —","pre (baseline), table row r458",0
same,"Abundance: Family Bacillaceae, Genus Bacillus, Species —","pre (baseline), table row r459",0
same,"Abundance: Family Enterococcaceae, Genus Vagococcus, Species —","pre (baseline), table row r460",0
same,"Abundance: Family Lachnospiraceae, Genus —, Species —","pre (baseline), table row r462",0
same,"Abundance: Family Ruminococcaceae, Genus Oscillospira, Species —","pre (baseline), table row r466",0
same,"Abundance: Family Erysipelotrichaceae, Genus —, Species —","pre (baseline), table row r468",4
same,"Abundance: Family Other, Genus Other, Species Other","pre (baseline), table row r469",0
same,"Abundance: Family Clostridiaceae, Genus Clostridium, Species Other","pre (baseline), table row r470",0
same,"Abundance: Family Ruminococcaceae, Genus —, Species —","pre (baseline), table row r473",3
same,"Abundance: Family Deferribacteraceae, Genus Mucispirillum, Species schaedleri","pre (baseline), table row r474",0
same,"Abundance: Family Turicibacteraceae, Genus Turicibacter, Species —","pre (baseline), table row r475",0
same,"Abundance: Family [Mogibacteriaceae], Genus —, Species —","pre (baseline), table row r478",0
same,"Abundance: Family Lachnospiraceae, Genus Dorea, Species longicateria","pre (baseline), table row r480",2
same,"Abundance: Family Ruminococcaceae, Genus —, Species —","pre (baseline), table row r481",0
same,"Abundance: Family Lachnospiraceae, Genus —, Species —","pre (baseline), table row r482",0
same,Abundance Erysipelotrichaceae/Allobaculum/—,"pre, line r8",6375
same,Abundance Turicibacteraceae/Turicibacter/—,"pre, line r9",9408
same,Abundance Desulfovibrionaceae/—/—,"pre, line r10",3882
same,Abundance Clostridiaceae/Other/Other,"pre, line r11",7143
same,Abundance Lactobacillaceae/Lactobacillus/—,"pre, line r12",416
same,Abundance Streptococcaceae/Lactococeus/—,"pre, line r13",2239
same,Abundance Bacteroidaceae/Bacteroides/—,"pre, line r14",1596
same,Abundance [Paraprevotellaceae]/[Prevotella]/—,"pre, line r15",1674
same,Abundance —/—/—,"pre, line r16",1552
same,Abundance Deferribacteraceae/Mucispirillum/schaedleri,"pre, line r17",4795
same,Abundance Bacteroidaceae/Bacteroides/acidifaciens,"pre, line r18",983
same,Abundance —/—/—,"pre, line r19",853
same,Abundance Verrucomicrobiaceae/Akkermansia/muciniphila,"pre, line r20",2305
same,Abundance Rikenellaceae/—/—,"pre, line r21",696
same,Abundance Enterobacteriaceae/Other/Other,"pre, line r22",17
same,Abundance Lactobacillaceae/Lactobacillus/—,"pre, line r23",883
same,Abundance S24-7/—/—,"pre, line r24",623
same,Abundance Lachnospiraceae/—/—,"pre, line r25",752
same,Abundance Peptostreptocpccaceae/—/—,"pre, line r26",1121
same,Abundance Lachnospiraceae/[Ruminococcus]/gnavus,"pre, line r27",2041
same,Abundance Lachnospiraceae/Coprococeus/—,"pre, line r28",444
same,Abundance Bifidobacteriaceae/Bifidobacterium/pseudolongum,"pre, line r29",1317
same,Abundance Enterobacteriaceae/Proteus/—,"pre, line r30",0
same,Abundance Lactobacillaceae/Lactobacillus/Other,"pre, line r31",64
same,Abundance S24-7/—/—,"pre, line r32",740
same,Abundance Porphyromonadaceae/Parabacteroides/distasonis,"pre, line r33",320
same,Abundance Clostridiaceae/—/—,"pre, line r34",1242
same,Abundance —/—/—,"pre, line r35",420
same,Abundance Desulfovibrionaceae/Desulfovibrio/—,"pre, line r36",65
same,Abundance S24-7/—/—,"pre, line r37",708
same,Abundance Coriobacteriaceae/Adlercreutzia/—,"pre, line r38",625
same,Abundance S24-7/—/—,"pre, line r39",480
same,Abundance Erysipelotrichaceae/Clostridium/cocleatum,"pre, line r40",319
same,Abundance Ruminococcaceae/Ruminococcus/—,"pre, line r41",1164
same,Abundance Lachnospiraceae/Other/Other,"pre, line r43",481
same,Abundance Lachnospiraceae/[Ruminococcus]/gnavus,"pre, line r44",311
same,Abundance Turicibacteraceae/Turicibacter/—,"pre, line r45",586
same,Abundance Lachnospiraceae/—/—,"pre, line r46",611
same,Abundance Bacteroidaceae/Bacteroides/—,"pre, line r47",460
same,Abundance Ruminococcaceae/Oscillospira/—,"pre, line r48",293
same,Abundance Lachnospiraceae/Roseburia/—,"pre, line r50",488
same,Abundance Lachnospiraceae/—/—,"pre, line r51",338
same,Abundance S24-7/—/—,"pre, line r52",305
same,Abundance Lachnospiraceae/[Ruminococcus]/gnavus,"pre, line r53",123
same,Abundance Lachnospiraceae/Coprococcus/—,"pre, line r56",126
same,Abundance S24-7/—/—,"pre, line r57",322
same,Abundance S24-7/—/—,"pre, line r58",237
same,Abundance Lachnospiraceae/Other/Other,"pre, line r60",562
same,Abundance Lachnospiraceae/[Ruminococcus]/gnavus,"pre, line r61",375
same,Abundance Erysipelotrichaceae/Allobaculum/—,"pre, line r62",286
same,Abundance Desulfovibrionaceae/Desulfovibrio/C21_c20,"pre, line r63",604
same,Abundance S24-7/—/—,"pre, line r64",383
same,Abundance Streptococcaceae/Lactococcus/garvieae,"pre, line r66",11
same,Abundance Enterobacteriaceae/Proteus/—,"pre, line r68",0
same,Abundance Lachnospiraceae/—/—,"pre, line r69",44
same,Abundance S24-7/—/—,"pre, line r70",399
same,Abundance Lachnospiraceae/[Ruminococcus]/gnavus,"pre, line r71",278
same,Abundance Clostridiaceae/Clostridium/Other,"pre, line r73",707
same,Abundance Lachnospiraceae/—/—,"pre, line r74",0
same,Abundance Clostridiaceae/Other/Other,"pre, line r75",215
same,Abundance Clostridiaceae/Other/Other,"pre, line r77",255
same,Abundance S24-7/—/—,"pre, line r78",196
same,Abundance Lachnospiraceae/[Ruminococcus]/gnavus,"pre, line r79",601
same,Abundance Bacteroidaceae/Bacteroides/—,"pre, line r80",170
